# System: 475296-252-R-J1-PDC spheroid viability
# Experiment: Anticancer human tumor 475296-252-R-J1-PDC patient-derived rectal carcinoma cell line growth inhibition [PI3K]
# Details: spheroids with HUVEC and MSC; for IC50: curve of first compound; for viability, T/C: stronger effect = lower value
# Procedure, shortened: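 Combination activity was assessed by viability in multicellular tumor spheroids carrying HUVEC and MSC components. Agents were tested with PI3K inhibitors from a Cmax-based top dose (or 10 microM) downward in half-log increments.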
# [1] = second compound 0.0316 µM, first compound 0.0316 µM
# [2] = second compound 0.0316 µM, first compound 0.1 µM
# [3] = second compound 0.1 µM, first compound 0.0316 µM
# [4] = second compound 0.1 µM, first compound 0.1 µM
# [5] = second compound 0.316 µM, first compound 0.0316 µM
# [6] = second compound 0.316 µM, first compound 0.1 µM
# [7] = second compound 1 µM, first compound 0.0316 µM
# [8] = second compound 1 µM, first compound 0.1 µM
# [9] = second compound 3.16 µM, first compound 0.0316 µM
# [10] = second compound 3.16 µM, first compound 0.1 µM
# [11] = second compound 10 µM, first compound 0.0316 µM
# [12] = second compound 10 µM, first compound 0.1 µM
# 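Note: spheroids exposed to agents for seven days before readout.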
structure (smiles),measurement,setting,value
CC(=O)c1c(C)c2cnc(Nc3ccc(N4CCNCC4)cn3)nc2n(C2CCCC2)c1=O + Cc1nc(NC(=O)N2CCCC2C(N)=O)sc1-c1ccnc(C(C)(C)C(F)(F)F)c1,IC50,second compound 0.0316 µM,> 0.1 µM
same,IC50,second compound 0.1 µM,> 0.1 µM
same,IC50,second compound 0.316 µM,> 0.1 µM
same,IC50,second compound 1 µM,> 0.1 µM
same,IC50,second compound 3.16 µM,> 0.1 µM
same,IC50,second compound 10 µM,> 0.1 µM
same,"viability, T/C","second compound 0.0316 µM, first compound 0.000316 µM",99.6%
same,"viability, T/C","second compound 0.0316 µM, first compound 0.001 µM",96.9%
same,"viability, T/C","second compound 0.0316 µM, first compound 0.00316 µM",101%
same,"viability, T/C","second compound 0.0316 µM, first compound 0.01 µM",97.4%
same,"viability, T/C",[1],117%
same,"viability, T/C",[2],118%
same,"viability, T/C","second compound 0.1 µM, first compound 0.000316 µM",106%
same,"viability, T/C","second compound 0.1 µM, first compound 0.001 µM",94.4%
same,"viability, T/C","second compound 0.1 µM, first compound 0.00316 µM",107%
same,"viability, T/C","second compound 0.1 µM, first compound 0.01 µM",91.3%
same,"viability, T/C",[3],103%
same,"viability, T/C",[4],108%
same,"viability, T/C","second compound 0.316 µM, first compound 0.000316 µM",92%
same,"viability, T/C","second compound 0.316 µM, first compound 0.001 µM",114%
same,"viability, T/C","second compound 0.316 µM, first compound 0.00316 µM",94.1%
same,"viability, T/C","second compound 0.316 µM, first compound 0.01 µM",101%
same,"viability, T/C",[5],110%
same,"viability, T/C",[6],101%
same,"viability, T/C","second compound 1 µM, first compound 0.000316 µM",101%
same,"viability, T/C","second compound 1 µM, first compound 0.001 µM",95.5%
same,"viability, T/C","second compound 1 µM, first compound 0.00316 µM",100%
same,"viability, T/C","second compound 1 µM, first compound 0.01 µM",112%
same,"viability, T/C",[7],104%
same,"viability, T/C",[8],102%
same,"viability, T/C","second compound 3.16 µM, first compound 0.000316 µM",90.4%
same,"viability, T/C","second compound 3.16 µM, first compound 0.001 µM",102%
same,"viability, T/C","second compound 3.16 µM, first compound 0.00316 µM",96.8%
same,"viability, T/C","second compound 3.16 µM, first compound 0.01 µM",99%
same,"viability, T/C",[9],99.8%
same,"viability, T/C",[10],98.9%
same,"viability, T/C","second compound 10 µM, first compound 0.000316 µM",98%
same,"viability, T/C","second compound 10 µM, first compound 0.001 µM",92.7%
same,"viability, T/C","second compound 10 µM, first compound 0.00316 µM",96.9%
same,"viability, T/C","second compound 10 µM, first compound 0.01 µM",98.9%
same,"viability, T/C",[11],98.8%
same,"viability, T/C",[12],90.2%
CNC(=O)c1ccc(N2C(=S)N(c3ccc(C#N)c(C(F)(F)F)c3)C(=O)C2(C)C)cc1F + Cc1nc(NC(=O)N2CCCC2C(N)=O)sc1-c1ccnc(C(C)(C)C(F)(F)F)c1,IC50,second compound 0.0316 µM,> 10 µM
same,IC50,second compound 0.1 µM,> 10 µM
same,IC50,second compound 0.316 µM,> 10 µM
same,IC50,second compound 1 µM,> 10 µM
same,IC50,second compound 3.16 µM,> 10 µM
same,IC50,second compound 10 µM,> 10 µM
same,"viability, T/C",[1],101%
same,"viability, T/C",[2],88.1%
same,"viability, T/C","second compound 0.0316 µM, first compound 0.316 µM",98.8%
same,"viability, T/C","second compound 0.0316 µM, first compound 1 µM",87.7%
same,"viability, T/C","second compound 0.0316 µM, first compound 3.16 µM",95.7%
same,"viability, T/C","second compound 0.0316 µM, first compound 10 µM",95.2%
same,"viability, T/C",[3],102%
same,"viability, T/C",[4],91.8%
same,"viability, T/C","second compound 0.1 µM, first compound 0.316 µM",99.6%
same,"viability, T/C","second compound 0.1 µM, first compound 1 µM",86.6%
same,"viability, T/C","second compound 0.1 µM, first compound 3.16 µM",111%
same,"viability, T/C","second compound 0.1 µM, first compound 10 µM",114%
same,"viability, T/C",[5],92.2%
same,"viability, T/C",[6],101%
same,"viability, T/C","second compound 0.316 µM, first compound 0.316 µM",86.1%
same,"viability, T/C","second compound 0.316 µM, first compound 1 µM",104%
same,"viability, T/C","second compound 0.316 µM, first compound 3.16 µM",101%
same,"viability, T/C","second compound 0.316 µM, first compound 10 µM",108%
same,"viability, T/C",[7],90.5%
same,"viability, T/C",[8],104%
same,"viability, T/C","second compound 1 µM, first compound 0.316 µM",95.6%
same,"viability, T/C","second compound 1 µM, first compound 1 µM",102%
same,"viability, T/C","second compound 1 µM, first compound 3.16 µM",89.8%
same,"viability, T/C","second compound 1 µM, first compound 10 µM",109%
same,"viability, T/C",[9],81.1%
same,"viability, T/C",[10],104%
same,"viability, T/C","second compound 3.16 µM, first compound 0.316 µM",92.3%
same,"viability, T/C","second compound 3.16 µM, first compound 1 µM",98.1%
same,"viability, T/C","second compound 3.16 µM, first compound 3.16 µM",108%
same,"viability, T/C","second compound 3.16 µM, first compound 10 µM",97.5%
same,"viability, T/C",[11],80.8%
same,"viability, T/C",[12],89.5%
same,"viability, T/C","second compound 10 µM, first compound 0.316 µM",104%
same,"viability, T/C","second compound 10 µM, first compound 1 µM",88%
same,"viability, T/C","second compound 10 µM, first compound 3.16 µM",98.9%
same,"viability, T/C","second compound 10 µM, first compound 10 µM",90.7%

# — PubChem BioAssay AID1963980 (Molecular Pharmacology Branch, DTP, NCI, 2024)
